Source: article PMC4468025 (Biochemical pharmacology, 2015)
“Also recorded” adds a separate entry of the source. Read-outs that look alike come from different tables or passages of the source.

Key:
[1] = tested on: HT1080 fibrosarcoma cells; assay: HT1080 cell migration assay; format: cell-based, human; conditions: for inhibition at 100 µM: Homo sapiens, HT-1080, 24 h, read-out: inhibition of HT1080 cell migration, 100 µM, 24 h
[2] = tested on: Pseudomonas aeruginosa exotoxin A cytotoxicity in CHO DG44 cells; assay: Pseudomonas exotoxin A assay; format: cell-based, Chinese hamster
[3] = tested on: PC1/3; assay: PC1/3 inhibition; format: biochemical; conditions: for inhibition of PC1/3 (in words): 10 µM; for inhibition of PC1/3: 100 µM
[4] = tested on: anthrax toxin (PA + LF) cytotoxicity in RAW264.7 cells; format: cell-based, murine
[5] = target: furin; conditions: Ki values taken from the literature; cited from earlier work
[6] = tested on: Golgi furin in CHO-GRAPfurin cells; assay: SEAP activity assay in CHO-GRAPfurin cells; format: cell-based, Chinese hamster; conditions: 100 µM, 20–24 h
[7] = tested on: PACE4; conditions: cited from earlier work
[8] = tested on: PC5; conditions: cited from earlier work
[9] = target: Soluble human furin (Homo sapiens, UniProt P09958); assay: Furin enzyme assay, IC50 and Ki determination
[10] = tested on: skin tumor; conditions: cited from earlier work
[11] = tested on: human fibrosarcoma HT1080 cells; conditions: by inhibiting proMT1-MMP processing; cited from earlier work
[12] = concentration not stated in the sentence (10 and 100 µM tested)

Soluble human furin, sequence (P09958 108-715 limits assumed): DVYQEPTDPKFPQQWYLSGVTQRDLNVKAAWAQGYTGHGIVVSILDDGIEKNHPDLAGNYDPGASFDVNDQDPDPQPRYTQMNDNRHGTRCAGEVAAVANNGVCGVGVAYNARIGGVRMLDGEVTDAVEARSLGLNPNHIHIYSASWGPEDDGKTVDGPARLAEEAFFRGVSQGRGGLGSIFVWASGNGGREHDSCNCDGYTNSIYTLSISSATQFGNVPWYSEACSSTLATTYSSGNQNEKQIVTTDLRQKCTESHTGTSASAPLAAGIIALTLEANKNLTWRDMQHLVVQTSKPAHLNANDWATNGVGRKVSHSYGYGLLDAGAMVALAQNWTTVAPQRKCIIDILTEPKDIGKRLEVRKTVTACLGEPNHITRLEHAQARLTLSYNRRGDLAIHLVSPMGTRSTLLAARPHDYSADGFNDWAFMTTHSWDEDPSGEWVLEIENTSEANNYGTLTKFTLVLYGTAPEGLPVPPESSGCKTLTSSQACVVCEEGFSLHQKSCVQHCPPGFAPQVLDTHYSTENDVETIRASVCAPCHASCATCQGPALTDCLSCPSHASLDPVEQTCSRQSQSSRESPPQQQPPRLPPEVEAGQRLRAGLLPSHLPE

Molecule | inhibition of cell migration (in words) ([1]; 100 µM, 24 h) | inhibition at 100 µM [1] [%] | protection against Pseudomonas exotoxin A (in words) [2, 12] | protection against anthrax toxicity (in words) ([4]; 100 µM inhibitor, 2 h) | protection against anthrax toxicity (in words) ([4]; 10 µM inhibitor, 2 h) | protection against anthrax toxicity (in words) [4, 12] | inhibition of intracellular (TGN) furin, SEAP release (in words) [6] | further results
N=C(N)Nc1ccc(O[C@@H]2CCC[C@H](Oc3ccc(NC(=N)N)cc3)C2)cc1 [2b, cis-1,3-bis(4-guanidinophenoxy)cyclohexane] | inhibited migration | ~40 | – | – | – | – | – | –
N=C(N)Nc1ccc(OCCCOc2ccc(NC(=N)N)cc2NC(=N)N)c(NC(=N)N)c1 [2d, 1,3-bis(2,4-diguanidinophenoxy)propane] | – | – | good protection | excellent protection | – | – | – | inhibition of HT1080 cell migration ([1]; 100 µM, 24 h): around 40%; inhibition of PC1/3 (in words) [3]: no inhibition detected; inhibition of PC1/3 [3]: 51%
N=C(N)Nc1ccc(O[C@@H]2CCC[C@H](Oc3ccc(NC(=N)N)cc3NC(=N)N)C2)c(NC(=N)N)c1 [2e, cis-1,3-bis(2,4-diguanidinophenoxy)cyclohexane] | – | 20 to 25 | good protection | excellent protection | – | – | – | inhibition of PC1/3 (in words) [3]: no inhibition detected; inhibition of PC1/3 [3]: 38%
N=C(N)Nc1ccc(OC2CC(Oc3ccc(NC(=N)N)cc3NC(=N)N)C(NC(=N)N)CC2NC(=N)N)cc1 (centres unmarked) [compound 1b, 1,1'-(4-((2,4-diguanidino-5-(4-guanidinophenoxy)cyclohexyl)oxy)-1,3-phenylene)diguanidine] | retard tumor cell migration; also recorded: good inhibitors of cell migration; also recorded: inhibited cell migration | 35 | protect cells against Bacillus anthracis (anthrax) and Pseudomonas aeruginosa intoxication; also recorded: capable of blocking both Pseudomonas and anthrax toxemia at low doses | – | complete inhibition of anthrax toxicity | protect cells against Bacillus anthracis (anthrax); also recorded: capable of blocking both Pseudomonas and anthrax toxemia at low doses | block release of a Golgi reporter; also recorded: able to inhibit intracellular furin; also recorded: able to inhibit TGN furin | protection against Pseudomonas exotoxin A (in words) ([2]; 10 µM inhibitor, 20–24 h): completely prevent Pseudomonas toxin cytotoxicity; potency against furin in vitro (in words) [5]: nanomolar potency
N=C(N)Nc1ccc(OC2CC(Oc3ccc(NC(=N)N)cc3)C(NC(=N)N)CC2NC(=N)N)cc1 (centres unmarked) [compound 1g, 1,1'-(4,6-bis(4-guanidinophenoxy)cyclohexane-1,3-diyl)diguanidine] | did not inhibit cell migration; also recorded: unable to inhibit | – | only moderate protection; also recorded: modest effect | – | complete inhibition of anthrax toxicity | efficiently protected cells against anthrax; also recorded: potently prevented anthrax toxicity | unable to inhibit | potency against furin in vitro (in words) [5]: nanomolar potency; cross-inhibition of PACE4 (in words) [7]: substantial cross-inhibition; cross-inhibition of PC5 (in words) [8]: substantial cross-inhibition
N=C(N)Nc1ccc(OCCCOc2ccc(NC(=N)N)cc2)cc1 [compound 2a, 1,3-bis(4-guanidinophenoxy)propane] | inhibited migration | ~40 | – | unable to block anthrax toxicity | – | – | – | –
N=C(N)Nc1ccc(Oc2cccc(Oc3ccc(NC(=N)N)cc3)c2)cc1 [compound 2c, 1,3-bis(4-guanidinophenoxy)benzene] | the most potent inhibitor; also recorded: inhibited migration; also recorded: completely inhibited cell mobility | – | – | – | – | – | – | –
N=C(N)Nc1ccc(Oc2cccc(Oc3ccc(NC(=N)N)cc3NC(=N)N)c2)c(NC(=N)N)c1 [compound 2f, 1,3-bis(2,4-diguanidinophenoxy)benzene] | – | 20 to 25 | good protection | excellent protection | almost complete protection; also recorded: complete inhibition of anthrax toxicity | highly efficient protection | only slightly inhibited | inhibition of furin in vitro (in words) [9]: micromolar potency
dec-RVKR-CMK | – | – | – | – | – | – | – | skin tumor progression (in words) [10]: decreases skin tumor progression
naphthofluorescein disodium salt [B3] | – | – | – | – | – | – | – | cell mobility and invasiveness of HT1080 cells (in words) [11]: prevented cell mobility and invasiveness
